# In US11377429B2, “Benzothia(di)azepine compounds and their use as bile acid modulators” (Albireo AB, priority 2020, dated 2022):
# Experiments:
# [1] = target: T1, Human LBAT (Homo sapiens, UniProt Q14973); test: LBAT (h/m) assay, human LBAT-overexpressing cells, 3H-taurocholic acid uptake; format: cell-based; conditions: read-out: hLBAT IC50
# T1 construct: expressed in transfected cells; cultured under Geneticin selection
# T1 sequence (Q14973 1-349): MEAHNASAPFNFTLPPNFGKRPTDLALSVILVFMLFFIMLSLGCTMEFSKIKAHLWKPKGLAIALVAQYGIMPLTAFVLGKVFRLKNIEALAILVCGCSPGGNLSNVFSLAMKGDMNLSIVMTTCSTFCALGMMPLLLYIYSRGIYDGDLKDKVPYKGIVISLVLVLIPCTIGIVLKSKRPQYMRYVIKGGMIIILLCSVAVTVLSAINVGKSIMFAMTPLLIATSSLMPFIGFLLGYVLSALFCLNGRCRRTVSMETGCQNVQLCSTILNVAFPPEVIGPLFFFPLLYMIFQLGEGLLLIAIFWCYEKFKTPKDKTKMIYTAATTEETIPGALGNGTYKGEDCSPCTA
# Protocol: LBAT (h/m) Assay Protocol
# 20,000 cells (Human or Mouse LBAT-overexpressing cells) were seeded in 96-wells plate (Corning CLS3809) in 100 μL MEM-alpha medium (Gibco 12571-063) supplemented with 10% FBS (Gibco 10438026) containing Geneticin (Gibco 10131-027) (1 mg/mL) and incubated at 37° C. in 5% CO2 for 24 hours. After incubation, media was decanted from the wells and cells were washed two times with 300 μL of basal MEM-alpha medium (FBS-free). After decanting basal MEM-alpha medium each time, plates were tapped against paper towel to ensure maximum removal of residual media. For human LBAT, incubation mix was prepared by adding test inhibitor dilutions (3-fold serial dilution in DMSO (Sigma D2650), 10 points) in MEM-alpha (without FBS) containing 0.3 μM 3H-taurocholic acid (ARC ART-1368) and 7.5 μM cold taurocholic acid (Sigma T4009) (maintaining 0.2% final DMSO concentration). For mouse LBAT, incubation mix was prepared by adding test inhibitor dilutions (3-fold serial dilution in DMSO, 10 points) in MEM-alpha (without FBS) containing 0.3 μM 3H-taurocholic acid and 25 μM cold taurocholic acid maintaining 0.2% final DMSO concentration). 50 μL of incubation mix containing test inhibitors was then added to the wells (in duplicate) and the plates were incubated for 20 minutes in a CO2 incubator at 37° C. After incubation, the reaction was stopped by keeping the plates on ice water mix for 2-3 minutes and then the incubation mix was aspirated completely from the wells. The wells were washed two times with 250 μL of chilled unlabeled 1 mM taurocholic acid dissolved in HEPES (Gibco 15630080)-buffered (10 mM) HBSS (Gibco 14175079) (pH 7.4). The plates were tapped against a paper towel after every wash to ensure maximum removal of blocking buffer.
# 100 μL of MicroScint-20 (PerkinElmer 6013621) was added to the wells and kept overnight at room temperature before reading the plates in TopCount NXT™ Microplate Scintillation and Luminescence Counter from PerkinElmer under 3H Test protocol (set at 120 seconds reading time per well, with normal plate orientation).
# (§1) Preparation of Test Compound Dilutions
# (§2) All test compounds were provided in powder form at room temperature. 10 mM DMSO stocks of the test compounds were prepared, aliquoted and stored at −20° C. From the 10 mM DMSO stock of the compounds, a 3-fold serial dilution in DMSO was prepared to get a total of 10 dilutions of the test compounds. 0.5 μL of this dilution in DMSO was added to 250 μL of FBS-free basal media containing 3H-taurocholic acid and cold taurocholic acid to prepare the incubation mixture.
# [2] = target: T2, Human IBAT (Homo sapiens, UniProt Q12908); test: IBAT (h/m) assay, human IBAT-overexpressing cells, 3H-taurocholic acid uptake; format: cell-based; conditions: read-out: hIBAT IC50
# T2 construct: expressed in transfected cells; cultured under Puromycin selection
# T2 sequence (Q12908 1-348): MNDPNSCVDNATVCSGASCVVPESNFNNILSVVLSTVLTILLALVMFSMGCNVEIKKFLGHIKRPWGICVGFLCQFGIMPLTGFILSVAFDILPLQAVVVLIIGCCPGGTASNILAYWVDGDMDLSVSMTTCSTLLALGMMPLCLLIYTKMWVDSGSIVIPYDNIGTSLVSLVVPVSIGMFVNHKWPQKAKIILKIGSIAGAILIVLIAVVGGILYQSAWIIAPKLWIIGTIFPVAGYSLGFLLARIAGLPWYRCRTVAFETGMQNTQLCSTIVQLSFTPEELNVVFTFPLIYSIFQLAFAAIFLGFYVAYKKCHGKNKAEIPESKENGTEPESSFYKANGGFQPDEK
# Protocol: IBAT (h/m) Assay Protocol
# 10,000 cells (Human or Mouse IBAT-overexpressing cells) were seeded in 96-wells plate (Corning CLS3809) in 200 μL MEM-alpha medium (Gibco 12571-063) supplemented with 10% FBS (Gibco 10438026) containing Puromycin (Gibco A1113803) (10 μg/mL) and incubated at 37° C. in 5% CO2 for 48 hours. After incubation, media was decanted from the wells and cells were washed two times with 300 μL of basal MEM-alpha medium (FBS-free). After decanting basal MEM-alpha medium each time, plates were tapped against paper towel to ensure maximum removal of residual media. Test inhibitor dilutions (highest test concentration being 10 μM, 3-fold serial dilution, 10 points) prepared in DMSO (Sigma D2650) were added in incubation mix (maintaining 0.2% final DMSO concentration) containing 0.25 μM 3H-taurocholic acid (ARC ART-1368) and 5 μM of cold taurocholic acid (Sigma T4009). 50 μL of incubation mix containing test inhibitors was then added to the wells (in duplicate) and the plates were incubated for 20 minutes in a CO2 incubator at 37° C. After incubation, the reaction was stopped by keeping the plates on ice water mix for 2-3 minutes and then the incubation mix was aspirated completely from the wells. The wells were washed two times with 250 μL of chilled unlabeled 1 mM taurocholic acid dissolved in HEPES (Gibco 15630080)-buffered (10 mM) HBSS (Gibco 14175079) (pH 7.4). The plates were tapped against a paper towel after every wash to ensure maximum removal of blocking buffer. 100 μL of MicroScint-20 (PerkinElmer 6013621) was added to the wells and kept overnight at room temperature before reading the plates in TopCount NXT™ Microplate Scintillation and Luminescence Counter from PerkinElmer under 3H Test protocol (set at 120 seconds reading time per well).
# as §1, §2
IC50 [1] [nM],IC50 [2] [nM],SMILES
> 6670,40,"CCCCC1(CCCC)CN(c2ccc(F)cc2)c2cc(SC)c(OCC(OC)C(=O)O)cc2S(=O)(=O)C1 (single isomer, unassigned) [10, enantiomer 1]"
83,338,"CCC1(CC)CN(c2ccccc2)c2cc(SC)c(OCC(C)(F)C(=O)O)cc2S(=O)(=O)C1 (stereo not shown) [Example 6, 3-((3,3-diethyl-7-(methylthio)-1,1-dioxido-5-phenyl-2,3,4,5-tetrahydro-1,5-benzothiazepin-8-yl)oxy)-2-fluoro-2-methylpropanoic Acid]"
–,10,"CCCCC1(CC)CN(c2ccc(F)cc2)c2cc(SC)c(OCC(OCC)C(=O)O)cc2S(=O)(=O)C1 (stereo not shown) [Example 11, 3-((3-butyl-3-ethyl-5-(4-fluorophenyl)-7-(methylthio)-1,1-dioxido-2,3,4,5-tetrahydro-1,5-benzothiazepin-8-yl)oxy)-2-ethoxypropanoic Acid]"
320,11,"CCCCC1(CC)CN(c2ccc(F)cc2)c2cc(SC)c(OCC3(C(=O)O)CC3)cc2S(=O)(=O)C1 (racemic) [Example 2, 1-(((3-butyl-3-ethyl-5-(4-fluorophenyl)-7-(methylthio)-1,1-dioxido-2,3,4,5-tetrahydro-1,5-benzothiazepin-8-yl)oxy)methyl)cyclopropane-1-carboxylic Acid]"
119,770,"CCCCC1(CC)CN(c2ccc(F)cc2)c2cc(SC)c(OCC(C)(C)C(=O)O)cc2S(=O)(=O)C1 (single isomer, unassigned) [5, enantiomer 2]"
5410,10,"CCCCC1(CCCC)CN(c2ccc(F)cc2)c2cc(SC)c(OCC(OC)C(=O)O)cc2S(=O)(=O)C1 (stereo not shown) [Example 9, 3-((3,3-dibutyl-5-(4-fluorophenyl)-7-(methylthio)-1,1-dioxido-2,3,4,5-tetrahydro-1,5-benzothiazepin-8-yl)oxy)-2-methoxypropanoic Acid]"
1250,3,"CCCCC1(CCCC)CN(c2ccccc2)c2cc(SC)c(OCC(OCC)C(=O)O)cc2S(=O)(=O)C1 (stereo not shown) [Example 12, 3-((3,3-dibutyl-7-(methylthio)-1,1-dioxido-5-phenyl-2,3,4,5-tetrahydro-1,5-benzothiazepin-8-yl)oxy)-2-ethoxypropanoic Acid]"
21,256,"CCC1(CC)CN(c2ccc(F)cc2)c2cc(SC)c(OCC(C)(C)C(=O)O)cc2S(=O)(=O)C1 [Example 13, 3-((3,3-diethyl-5-(4-fluorophenyl)-7-(methylthio)-1,1-dioxido-2,3,4,5-tetrahydro-1,5-benzothiazepin-8-yl)oxy)-2,2-dimethylpropanoic Acid]"
2020,2,"CCCCC1(C)CN(c2ccc(F)cc2)c2cc(SC)c(OCC(O)C(=O)O)cc2S(=O)(=O)C1 (single isomer, unassigned) [1, diastereomer 2]"
1050,122,"CCCCC1(C)CN(c2ccc(F)cc2)c2cc(SC)c(OCC(O)C(=O)O)cc2S(=O)(=O)C1 (single isomer, unassigned) [1, diastereomer 4]"
921,61,"CCCCC1(C)CN(c2ccc(F)cc2)c2cc(SC)c(OCC(O)C(=O)O)cc2S(=O)(=O)C1 (single isomer, unassigned) [1, diastereomer 3]"
3680,30,"CCCC1(CCC)CN(c2ccccc2)c2cc(SC)c(OCC(O)C(=O)O)cc2S(=O)(=O)C1 (stereo not shown) [Example 14, 2-Hydroxy-3-((7-(methylthio)-1,1-dioxido-5-phenyl-3,3-dipropyl-2,3,4,5-tetrahydro-1,5-benzothiazepin-8-yl)oxy)propanoic Acid]"
> 2220,4,"CCCCC1(CCCC)CN(c2ccc(F)cc2)c2cc(SC)c(OCC(OC)C(=O)O)cc2S(=O)(=O)C1 (single isomer, unassigned) [10, enantiomer 2]"
1080,258,"CCCCC1(CC)CN(c2ccc(F)cc2)c2cc(SC)c(OCC3(C(=O)O)CC3)cc2S(=O)(=O)C1 (single isomer, unassigned) [3, enantiomer 2]"
2990,4,"CCCCC1(CC)CN(c2ccc(F)cc2)c2cc(SC)c(OCC(OC)C(=O)O)cc2S(=O)(=O)C1 (stereo not shown) [Example 8, 3-((3-butyl-3-ethyl-5-(4-fluorophenyl)-7-(methylthio)-1,1-dioxido-2,3,4,5-tetrahydro-1,5-benzothiazepin-8-yl)oxy)-2-methoxypropanoic Acid]"
173,37,"CCCCC1(CC)CN(c2ccc(F)cc2)c2cc(SC)c(OCC(C)(C)C(=O)O)cc2S(=O)(=O)C1 (racemic) [Example 4, 3-((3-butyl-3-ethyl-5-(4-fluorophenyl)-7-(methylthio)-1,1-dioxido-2,3,4,5-tetrahydro-1,5-benzothiazepin-8-yl)oxy)-2,2-dimethylpropanoic Acid]"
